Data on twelve compounds can be found in ChEMBL document CHEMBL1201862, “PubChem BioAssay data set” (2004).

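Compound exposure: 48 hours, 5 concentrations, 96-well plates. Here, GI50 denotes the concentration required for 50% inhibition of growth.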 Activity calls are given as the source filed them. Rule as the data show it: active = GI50 up to about 1.1 µM and inactive = higher. A value given as a limit tells only on which side of the number the result lay.

What all share (assay): growth of human tumour cells (NCI), 48 h
The subject of assay [1] is T47D.
The test system of assay [2] is Hs-578T.
Assay [3] has as its system NCI-H23.
Assay [4] relates to SN12C.
The test system of assay [5] is MDA-MB-231.
Assay [6] relates to UO-31.
The subject of assay [7] is Malme-3M.
The test system of assay [8] is NCI-H460.
Assay [9] deals with MDA-MB-435.
In assay [10] the test system is IGROV-1.
In assay [11] the test system is DU-145.
For assay [12], the system named is OVCAR-5.
The test system of assay [13] is SF-295.
The subject of assay [14] is HCT-15.
The test system of assay [15] is OVCAR-4.
The subject of assay [16] is UACC-257.
Assay [17] concerns HL-60.
Assay [18] has as its system NCI-H522.
The test system of assay [19] is HOP-92.

Take `COc1ccc(-c2nc(O)c3ccccc3n2)c(OC)c1`: the GI50 in assay [1], in assay [2], in [3], in [4], in assay [5] and in [6] was > 100 µM (inactive) in each case. Besides, the GI50 in assay [7], in assay [8], in assay [9], in assay [10], in assay [11] and in [12] was > 100 µM (inactive) each time. For the same compound, the GI50 in assay [13] was > 100 µM (inactive); in assay [14], more than 100 µM; in assay [15], > 100 µM (inactive); in assay [16], > 100 µM (inactive).
Regarding `N#CC(c1ccccc1)N(CCOCCOCCN(C(=O)c1cccc2ccccc12)C(C#N)c1ccccc1)C(=O)c1cccc2ccccc12` (configuration not stated), the GI50 in assay [17] is 31.7 µM (inactive); in assay [1] it was 4.1 µM (inactive); in assay [2] it was > 100 µM (inactive); in assay [3], > 100 µM (inactive); in [4], > 100 µM (inactive); in [5] it was > 100 µM (inactive). For the same compound, the GI50 in assay [6] was > 100 µM (inactive); in assay [7], > 100 µM (inactive); in assay [8], 87.1 µM (inactive); in [9], > 100 µM (inactive); in assay [10] it was > 100 µM (inactive); in [11], > 100 µM (inactive). Moreover, the GI50 in [12] was > 100 µM (inactive); in assay [13], > 100 µM (inactive); in [14] it was more than 100 µM; in assay [15] it was > 100 µM (inactive); in assay [16] it was > 100 µM (inactive).
For the compound `CCCNC(=O)Cn1c(-c2ccccc2)cc2ccccc21`, the GI50 in [17] was > 100 µM (inactive); in assay [1], 24.2 µM (inactive); in assay [2] it was 31.8 µM (inactive); in [3], 48 µM (inactive); in assay [4], > 100 µM (inactive); in assay [5] it was 32.7 µM (inactive). The GI50 in assay [6] is > 100 µM (inactive); in assay [7] it was 92 µM (inactive); in assay [8], 92.3 µM (inactive); in assay [9], 77.3 µM (inactive); in assay [10], 43.9 µM (inactive); in assay [18], 23.7 µM (inactive). The GI50 in assay [11] is > 100 µM (inactive); in assay [12], > 100 µM (inactive); in assay [13], 88.7 µM (inactive); in assay [14], 75 µM; in assay [15], 24.4 µM (inactive); in assay [16] it was > 100 µM (inactive).
As to `Cc1ccc2nc(-c3nccn3C)cc(C(=O)NC(C)CN(C)C)c2c1` (configuration not stated), the GI50 is 10.1 µM (inactive) in assay [17]; 46.3 µM (inactive) in [19]; > 100 µM (inactive) in assay [1]; > 100 µM (inactive) in [2]; > 100 µM (inactive) in [3]; > 100 µM (inactive) in assay [4]. In addition, the GI50 is > 100 µM (inactive) in assay [5]; 92.7 µM (inactive) in [6]; > 100 µM (inactive) in [7]; 24.9 µM (inactive) in [8]; > 100 µM (inactive) in [9]; > 100 µM (inactive) in [10]. For the same compound, the GI50 in [11] was > 100 µM (inactive); in [12], > 100 µM (inactive); in assay [14] it was 55.1 µM; in assay [16] it was > 100 µM (inactive).
Take `C#CCN(C(=O)C(F)(F)F)C(/C=C\C(=O)OC)(C(=O)OCC)C(=O)OCC`: the GI50 in [17], in assay [1], in assay [2], in assay [3], in assay [4] and in assay [5] was > 100 µM (inactive) in each case. Further, the GI50 in [6], in assay [7], in assay [8], in assay [9], in assay [10] and in assay [18] was > 100 µM (inactive) each time. Also, the GI50 is > 100 µM (inactive) in assay [11]; > 100 µM (inactive) in [12]; > 100 µM (inactive) in [13]; more than 100 µM in assay [14]; > 100 µM (inactive) in assay [15].
For `Cc1cc(N(CCC#N)CCC#N)ccc1C(/N=N/c1ccccc1)=N\NC(=O)c1ccccc1`, the GI50 in [17] is 35.7 µM (inactive); in [1], 5.2 µM (inactive); in [2], 31.5 µM (inactive); in [3] it was 30.5 µM (inactive); in assay [4] it was 43.9 µM (inactive); in [5], 57 µM (inactive). Besides, the GI50 in assay [6] is 17.9 µM (inactive); in [7], 34 µM (inactive); in [8] it was 29.3 µM (inactive); in assay [9] it was 8.04 µM (inactive); in assay [10], 28.2 µM (inactive); in assay [18], 16.3 µM (inactive). The GI50 was 21.7 µM (inactive) in assay [11]; 86.9 µM (inactive) in [12]; 11.6 µM (inactive) in assay [13]; 18.3 µM in assay [14]; 29.2 µM (inactive) in assay [15]; 38.5 µM (inactive) in assay [16].
For `CCOC(=O)/C(=C\n1c(=O)sc2ccccc21)C(=O)c1ccccc1`, the GI50 in assay [17] was 33.5 µM (inactive); in assay [1] it was 22.4 µM (inactive); in [2], 39.6 µM (inactive); in assay [3] it was > 100 µM (inactive); in assay [4] it was > 100 µM (inactive); in assay [5], 63 µM (inactive). Moreover, the GI50 in assay [6] is 26 µM (inactive); in [7] it was > 100 µM (inactive); in assay [8], > 100 µM (inactive); in [9] it was > 100 µM (inactive); in assay [10], 20 µM (inactive); in [18], 48 µM (inactive). For the same compound, the GI50 in [11] was > 100 µM (inactive); in assay [12], > 100 µM (inactive); in assay [13], 88.1 µM (inactive); in [14], more than 100 µM; in assay [15], > 100 µM (inactive); in assay [16], > 100 µM (inactive).
Turning to `CSc1nc(C)c(CCCl)c(Cl)n1`, the GI50 is > 100 µM (inactive) in assay [1]; > 100 µM (inactive) in assay [2]; > 100 µM (inactive) in assay [3]; 52.6 µM (inactive) in assay [4]; > 100 µM (inactive) in assay [5]; > 100 µM (inactive) in [6]. Besides, the GI50 in assay [7] was > 100 µM (inactive); in [8], > 100 µM (inactive); in [9], 34.1 µM (inactive); in [10], > 100 µM (inactive); in assay [18] it was 20.6 µM (inactive); in assay [11] it was > 100 µM (inactive). Further, the GI50 in assay [13] was > 100 µM (inactive); in [14] it was more than 100 µM; in assay [15], > 100 µM (inactive); in [16], > 100 µM (inactive).
On to `OC(CCNCc1ccccc1)c1ccc2ccccc2c1` (configuration not stated), for which the GI50 was 19.5 µM (inactive) in assay [17]; 24 µM (inactive) in assay [1]; 20.6 µM (inactive) in assay [2]; 30 µM (inactive) in assay [3]; 29.1 µM (inactive) in assay [4]; 17.4 µM (inactive) in assay [5]. The GI50 in assay [6] is 16 µM (inactive); in assay [7] it was 22 µM (inactive); in [8], 17.3 µM (inactive); in [9], 23 µM (inactive); in [10] it was 16 µM (inactive); in assay [18] it was 18.7 µM (inactive). Besides, the GI50 was 18.3 µM (inactive) in assay [11]; 30.7 µM (inactive) in assay [12]; 33 µM (inactive) in assay [13]; 20.5 µM in assay [14]; 28.4 µM (inactive) in [15]; 18 µM (inactive) in assay [16].
In the case of `COc1ccc(-c2[nH]c(-c3ccc(OC)cc3)c(-c3ccccn3)c2-c2ccccn2)cc1`, the GI50 in [17] was 32.4 µM (inactive); in [19] it was > 100 µM (inactive); in assay [1], 31.5 µM (inactive); in assay [2] it was > 100 µM (inactive); in [3], 42.5 µM (inactive); in assay [4] it was 52.2 µM (inactive). The GI50 in assay [5] is 89.3 µM (inactive); in [6], 33.7 µM (inactive); in assay [7], 21.1 µM (inactive); in [8], 31.8 µM (inactive); in assay [9] it was 21.7 µM (inactive); in assay [10] it was 71.8 µM (inactive). Further, the GI50 is > 100 µM (inactive) in assay [11]; > 100 µM (inactive) in [12]; 38.2 µM (inactive) in [13]; 26.1 µM in assay [14]; 40.2 µM (inactive) in assay [16].
For `C/C=C1\CC(C(=O)OCC)CCCCCCCCCCC1=O` (configuration not stated), the GI50 in assay [17] was 36.6 µM (inactive); in [1], 26.7 µM (inactive); in assay [2], 28.9 µM (inactive); in assay [3], 37.6 µM (inactive); in assay [4], 26.6 µM (inactive); in assay [5], 58.6 µM (inactive). The GI50 in [6] is 37.3 µM (inactive); in assay [7], 32.4 µM (inactive); in assay [8], 54.1 µM (inactive); in [9], 17.5 µM (inactive); in assay [10], 31.8 µM (inactive); in [18] it was 25.5 µM (inactive). For the same compound, the GI50 in assay [11] was 54.3 µM (inactive); in assay [12] it was > 100 µM (inactive); in [13], 57.4 µM (inactive); in assay [14] it was 34.6 µM; in assay [15] it was 55.5 µM (inactive); in assay [16], 37.8 µM (inactive).
As to `CC(=O)OCC1OC(Nc2ccc3nc(C)n(-c4cccc(C)c4)c(=O)c3c2)C(OC(C)=O)C(OC(C)=O)C1OC(C)=O` (configuration not stated), the GI50 in assay [17], in [1], in assay [2], in [3], in assay [4] and in assay [5] was > 62.5 µM (inactive) each time. Also, the GI50 in assay [6], in assay [7], in [8], in assay [9], in assay [10] and in [18] was > 62.5 µM (inactive) throughout. The GI50 in [11] is > 62.5 µM (inactive); in [12], > 62.5 µM (inactive); in [13], > 62.5 µM (inactive); in [14], more than 62.5 µM; in assay [15], > 62.5 µM (inactive); in assay [16], > 62.5 µM (inactive).
